Results on 9 molecules are retold here after patent publication US20050260158A1, “Human stem cell materials and methods” (priority 2003, published 2005).

Where two headings read alike, the source gives them in different places.

Series [1] has as its system MDSCs. The series can be described thus: Dispersion of MDSCs from the culture dish by standard digestion. The class given is cell-based, human. Conditions: standard digestion for up to 60 minutes. As for the experimental part:
In this example, a feature of the MDSCs is resistance to dispersion by trypsin and/or EDTA, or dispase. […] Therefore, to obtain cell suspensions for subculture, the MDSCs were dispersed by forceful pipetting after incubation with 2% lidocaine in a PBS solution for 5-8 minutes, with the exception of the work described in Example 8.

The subject of series [2] is MDSC colonies Clone 1 and Clone 2. The note with it: seven days; for Immunostained cells (%), MAP1-B (Neuronal): 200 ng/ml NGF; for Immunostained cells (%), vWF (Endothelial): 50 ng/ml VEGF; for Immunostained cells (%), Keratins (Epithelial): 100 ng/ml EGF; for Immunostained cells (%), AFP (Hepatocyte): 50 ng/ml HGF. As to the method: To determine whether progeny of colonies derived from single MDSCs can be induced to differentiate into distinct cell lineages, cells from a five-day, 50 ng/ml, M-CSF-treated culture enriched to contain 99.97% peripheral blood monocytes were inoculated into 12 U-bottom tissue culture plates, 96 wells each, at 0.8 cells/well in 0.1-0.2 ml growth medium. The cells were then incubated in the presence of 50 ng/ml M-CSF and 1,000 units/ml LIF for 15-20 days. Additionally, one plate was incubated with 25% conditioned medium from a five-day, 50 ng/ml, M-CSF treated culture. […] The few wells that contained more than one cell were excluded from further experimentation. Medium was replaced every 5-7 days.
At 45-52 days, these cells were dispersed by forceful pipetting, without lidocaine, into flat-bottom, 96-well, tissue culture plates. […] Two colonies of MDSCs, each of which had arisen from a single cell, were chosen for further differentiation experiments and were termed Clone 1 and Clone 2. […] These antibodies separately recognized cell-surface markers that included the T lymphocyte marker CD3, the epithelial marker keratin, the endothelial marker vWF, the neuronal marker MAP1-B, and the hepatocyte marker AFP.

Series [3] deals with MDSC cultures. As to the kind of experiment: bNGF-induced neuronal cell differentiation of MDSC cultures. The note with it: 200 ng/ml bNGF. Format: cell-based, human. As to the method:
To examine the ability of MDSCs to mature along yet another cell lineage, the effect of nerve growth factor (bNGF), an inducer of neuronal differentiation (McAllister et al., Cell. Mol. Life Sci., 58:1054-1060 (2001)), was tested. […] After 5-8 days these processes, some of which were exceedingly long, formed cell-cell contacts and created the appearance of a neural network. These mature cells were further characterized by immunostaining for neuron-specific enolase (NSE), neurofilament (NF) and microtubule-associated protein-1B (MAP-1B), which are well-known markers of neuronal cells (Encinas et al., J. Neurochem., 75:991-1003 (2000)).

The test system of series [4] is freshly cultured peripheral blood monocytes. As to the kind of experiment: bNGF treatment of freshly cultured peripheral blood monocytes. Format: cell-based, human. The note with it: bNGF for 7 or 20 days.
Series [5] relates to MDSC cultures. The series can be described thus: Insulin release from MDSC cultures (insulin ELISA). The class given is cell-based, human. Details: insulin release with osmolarity control: dose or concentration left out as unconfirmed. As to the method: Insulin release. MDSC cultures incubated in 24-well tissue culture plates (Costar, Cambridge, Mass.) at 70-80% confluence were treated for 4-5 days with LPS or CD40Ab. Insulin secretion was assessed as previously described in Schuit, F., et al., J. Biol. Chem. 272:18572-18579 (1997), using an insulin ELISA kit (Linco Research, MO). When required, the untreated or treated cultures were also pre-incubated for 30 min with […] diazoxide, 10 mM tolbudamide, or […] IBMX.
(In general: An ELISA detects its analyte on a solid surface through an enzyme-linked reagent.)

In series [6] the test system is MDSC cultures. As to the kind of experiment: VEGF-induced endothelial cell differentiation of MDSC cultures. The note with it: 50 ng/ml VEGF, 5-7 days.
Procedure: MDSC cultures prepared as described above were treated with 50 ng/ml of recombinant human vascular endothelial growth factor165 isoform (VEGF) for 5-7 days.
Series [7] deals with MDSC cultures. As to the kind of experiment: EGF-induced epithelial cell differentiation of MDSC cultures. The class given is cell-based, human. Conditions: 100 ng/ml EGF, 4 days. The text has this:
To determine whether MDSCs differentiate into lineages other than those of blood cells, the ability to differentiate into epithelial cells was initially tested. […] Only 4±1% of control cells stained for keratins and 3±2% for E-cadherin. Cells that stained positive for E-cadherin consistently stained for keratins.

Series [8] concerns MDSC cultures. As to the kind of experiment: HGF-induced hepatocyte differentiation of MDSC cultures. Format: cell-based, human. An excerpt: A smaller fraction of 33±4% also immunostained for cytokeratin 7, which is a marker of bile duct epithelium (Ruck et al., Histopathology 31: 324-329 (1997)). Only 8±5% of control cells immunostained for albumin, 6±5% for AFP, and 7±3% for cytokeratin 7.

Series [9] deals with human peripheral blood monocytes. As to the kind of experiment: Generation and growth of MDSCs in cultured peripheral blood monocytes (morphological examination). Format: cell-based. As to the method:
Peripheral blood monocyte (PBM) preparations from about 50 ml buffy coats samples (each from 500 ml peripheral blood) of healthy individuals (LifeSource Blood Services, Glenview, Ill.) were obtained by a selective attachment method as previously described (Hoklland, M. et al., Cell Biology, a laboratory handbook, Celis J. E. ed., Academic Press, 1: 179-181 (1994)). Buffy coat cell samples of 20-25 ml, which were diluted earlier with an equal volume of RPMI 1640 medium (Life Technologies, Inc.), were carefully layered over 20 ml Ficoll-Hypaque (γ=1.077) in 50 ml centrifuge tubes and then centrifuged using a Beckman CPKR centrifuge and a GH-3.7 horizontal rotor at 3,500 rpm (2700 g) for 25 minutes at 4° C. After carefully harvesting the mononuclear cells at the interface, cells were washed 2-3 times with RPMI 1640 medium by centrifugation using a Beckman CPKR centrifuge and a GH-3.7 horizontal rotor at 1,000 rpm (250 g) for 10 minutes. The cells were then used for culture and/or stored in liquid nitrogen in a 90% bovine calf serum and 10% dimethyl sulfoxide solution. The cells, including those obtained from storage in liquid nitrogen, were incubated at 2-3×10^7 cells/15 cm dish. After 8-12 hours incubation at 37° C. (8% CO2), the floating cells were removed and the dishes were rinsed 5 times with RPMI 1640 medium. The attached cells were then detached from the surface of the dishes by forceful pipetting with 5-10 ml of RPMI 1640 medium supplemented with 10% bovine calf serum.
The percentage of PBM was verified by immunostaining with an R-phycoerythin-conjugated mouse anti-human CD14 monoclonal antibody using a Becton Dickinson FACScan. The fraction of CD14 cells in these cell preparations, which were usually used in the experiments, was 90-95%. In a number of experiments, the CD14-immunostained cells were further isolated to a purity of 99.97% by using a droplet cell-sorting method by means of a 5 detector Becton Dickinson FACStarPlus Cell Sorter. The isolated PBMs were inoculated at 1×10^5 cells/ml in 8-well LabTek chamber slides (Nunc, Inc., Naperville, Ill.) at 0.4 ml/well in a 37° C. humidified atmosphere containing 8% CO2. Every five to seven days, one-half of the culture medium was replaced with fresh growth medium. This medium consisted of RPMI-1640 supplemented with 10% heat-inactivated bovine calf serum (Harlan, Indianapolis, Ind.), 100 units/ml penicillin, 100 μg/ml streptomycin, and 2 mM L-glutamine (Life Technologies).
Five preparations of cultured human peripheral blood monocytes, each from a different individual, were treated with 50 ng/ml M-CSF (Zhoa et al., Proc. Natl. Acad. Sci., 100:2426-2431 (2003); incorporated herein by reference in its entirety). After five days of incubation, the cultures contained two major morphologically distinct subsets of cells. The less abundant of the two subsets, containing about 25-35% of the total cells, was composed of elongated cells that morphologically resembled fibroblasts and were termed monocyte-derived stem cells (MDSCs). The other subset, containing about 65-75% of the total, was composed of standard macrophages, which were termed s-macrophages or standard macrophages (s-MΦ) (FIG. 1). […]
In order to determine whether the MDSCs were simply replicating progenitors of s-MΦ, five preparations of cultured peripheral blood monocytes, each from a different human, were treated with 50 ng/ml M-CSF and the number of MDSCs and s-MΦ were determined over a period of 14 days by morphological examination. […]

The mark [10] stands for this setting: 50 ng/ml M-CSF, five days, five monocyte preparations.

Take trypsin: the “removal of MDSCs from the surface of the culture dish” value in series [1] was “failed to remove the MDSCs”.

Regarding “bNGF: nerve growth factor, an inducer of neuronal differentiation”, the “Immunostained cells (%), MAP1-B (Neuronal)” value in series [2] (Clone 1) is given as 83%; in series [2] (Clone 2), 80%. The “MDSCs displaying neuronal morphology” value in series [3] was “about 90%”. For the same molecule, the “cells with immunostaining for NSE, NF and MAP-1B” value in series [3] (5-8 days) is “about 90%”. Further, the “cells with robust immunostaining for NSE, NF and MAP-1B” value in series [3] (three days) is 25%. Also, in series [4], the neuronal differentiation entry is given as “Little to no neuronal differentiation”.

`CC1=NS(=O)(=O)c2cc(Cl)ccc2N1` [diazoxide]: the “effect on LPS- or CD40Ab-induced insulin release” value in [5] (high glucose, 30 min pre-incubation) is reported as “effectively inhibited”.

In the case of `OC[C@@H](O)[C@@H](O)[C@H](O)[C@H](O)CO` [Mannite], the “insulin release with osmolarity control” value in series [5] was “little to no insulin release”.

As to VEGF, in [2] (Clone 1), the “Immunostained cells (%), vWF (Endothelial)” value worked out at 80%. For the same molecule, in [2] (Clone 2), the “Immunostained cells (%), vWF (Endothelial)” value turned out to be 87%. Further, in series [6], the “cells displaying endothelial cell morphology” value is “about 70%”; the “cells immunostaining for VEGF-R2, VEGF-R3 and vWF” value was determined as 74±3%; the “cells immunostaining for neuronal markers NSE, NF and MAP-1B” value is given as 31±4%.

For `CCCCNC(=O)NS(=O)(=O)c1ccc(C)cc1` [tolbutamide], the “effect on LPS- or CD40Ab-induced insulin release” value in [5] (low glucose (5 mM), 30 minutes, 10 μM tolbudamide, 100 μM IBMX) is reported as “markedly stimulated”.

With “EGF: promoter of epithelial cell growth and differentiation”, in series [7], the “MDSCs displaying epithelial cell morphology” value was “about 70%”, the “cells immunostaining for E-cadherin” value is recorded as 68±5% and the “cells immunostaining for pan-keratins” value was 71±4%. In [2] (Clone 1), the “Immunostained cells (%), Keratins (Epithelial)” value is recorded as 89%. For the same molecule, the “Immunostained cells (%), Keratins (Epithelial)” value in series [2] (Clone 2) is given as 76%.

For “HGF: recombinant human hepatocyte growth factor”, in series [2] (Clone 1), the “Immunostained cells (%), AFP (Hepatocyte)” value came to 88%. Further, the “Immunostained cells (%), AFP (Hepatocyte)” value in series [2] (Clone 2) came to 75%. In [8] (100 ng/ml HGF, 5-7 days), the “cells displaying round or oval-like flattened morphology” value is 75-80%, the “cells immunostaining for cytokeratin 7” value was 33±4%, the “treated cells immunostaining for AFP” value worked out at 81±7% and the “treated cells immunostaining for albumin” value was determined as 75±7%. Further, in series [8] (HGF 50 ng/ml (Table 3)), the “Percentage of cells displaying immunostaining for AFP” value amounted to 81 ± 7%, the “Percentage of cells displaying immunostaining for Albumin” value came out at 75 ± 7% and the “Percentage of cells displaying immunostaining for Cytokeratin 7” value worked out at 33 ± 4%.

B1: M-CSF: macrophage colony-stimulating factor, mitogenic compound used to propagate MDSCs (protein, UniProt P09603 33-554, looked up)
Macrophage colony-stimulating …: EEVSEYCSHMIGSGHLQSLQRLIDSQMETSCQITFEFVDQEQLKDPVCYLKKAFLLVQDIMEDTMRFRDNTPNAIAIVQLQELSLRLKSCFTKDYEEHDKACVRTFYETPLQLLEKVKNVFNETKNLLDKDWNIFSKNCNNSFAECSSQDVVTKPDCNCLYPKAIPSSDPASVSPHQPLAPSMAPVAGLTWEDSEGTEGSSLLPGEQPLHTVDPGSAKQRPPRSTCQSFEPPETPVVKDSTIGGSPQPRPSVGAFNPGMEDILDSAMGTNWVPEEASGEASEIPVPQGTELSPSRPGGGSMQTEPARPSNFLSASSPLPASAKGQQPADVTGTALPRVGPVRPTGQDWNHTPQKTDHPSALLRDPPEPGSPRISSLRPQGLSNPSTLSAQPQLSRSHSSGSVLPLGELEGRRSTRDRRSPAEPEGGPASEGAARPLPRFNSVPLTDTGHERQSEGSFSPQLQESVFHLLVPSVILVLLAVGGLLFYRWRRRSHQEPQRADSPLEQPEGSPLTQDDRQVELPV
Regarding B1, the “MDSCs in confluent cultures” value in series [9] (50 ng/ml M-CSF, after day 10) is listed as 80-90%. The “MDSC population replication interval” value in [9] (50 ng/ml M-CSF, estimated from growth curve after 6 days) is “three”. Further, in series [9] (setting [10]), the “MDSCs, share of the total cells” value is listed as 25-35% and the “standard macrophages (s-MΦ), share of the total cells” value is listed as 65-75%. For the same molecule, in series [9] (50 ng/ml, 7-9 days), the “cells with MDSC morphology” value is 70-80%.
